Reference: paper PMC9065260 (Frontiers in Pharmacology, 2022)
Like-named read-outs stand apart in the source and are kept apart here.

What was measured:
Test in all cases: Resistance index determination of drug resistance cell lines
KYSE 410TR = type: cell-based, human; conditions: for IC50: Homo sapiens, KYSE 410TR
Method: (§1) […]. Three types of esophageal cancer cell lines KYSE70TR, KYSE410TR, and KYSE450TR which were resistant to paclitaxel, and NSCLC cell lines HCC827GR and H1650TR, which were resistant to gefitinib and paclitaxel, respectively, were also tested for the comparison purpose.

KYSE 450TR = type: cell-based, human; conditions: for IC50: Homo sapiens, KYSE 450TR
Method: as §1

KYSE 70TR = type: cell-based, human; conditions: for IC50: Homo sapiens, KYSE 70TR
Method: as §1

H1650TR = type: cell-based, human; conditions: for IC50: Homo sapiens, H1650TR
Method: as §1

KYSE 450 = type: cell-based; conditions: Homo sapiens
Method: as §1

KYSE 410 = type: cell-based; conditions: Homo sapiens
Method: as §1

KYSE 70 = type: cell-based; conditions: Homo sapiens
Method: as §1

H1650 = type: cell-based; conditions: Homo sapiens
Method: as §1

With CC(=O)O[C@H]1C(=O)[C@@]2(C)[C@H]([C@H](OC(=O)c3ccccc3)[C@]3(O)C[C@H](OC(=O)[C@H](O)[C@@H](NC(=O)c4ccccc4)c4ccccc4)C(C)=C1C3(C)C)[C@]1(OC(C)=O)CO[C@@H]1C[C@@H]2O [paclitaxel] the IC50 (KYSE 410TR; 24 h, read-out: 24 h IC50) was 6400 ± 430 nM, the IC50 (KYSE 410TR; 48 h, read-out: 48 h IC50) was 1710 ± 86.4 nM and the Resistance index (KYSE 410TR; KYSE 410TR vs KYSE 410, 24 h IC50) was 5. It also gave a Resistance index (KYSE 410TR; KYSE 410TR vs KYSE 410, 48 h IC50) of 32.88, an IC50 (KYSE 450TR; 24 h, read-out: 24 h IC50) of 266 ± 66.1 nM and an IC50 (KYSE 450TR; 48 h, read-out: 48 h IC50) of 120 ± 32.1 nM. It also gave a Resistance index (KYSE 450TR; KYSE 450TR vs KYSE 450, 24 h IC50) of 4.84, a Resistance index (KYSE 450TR; KYSE 450TR vs KYSE 450, 48 h IC50) of 15.38 and an IC50 (KYSE 70TR; 24 h, read-out: 24 h IC50) of 4920 ± 274 nM. It also gave an IC50 (KYSE 70TR; 48 h, read-out: 48 h IC50) of 1120 ± 35.2 nM, a Resistance index (KYSE 70TR; KYSE 70TR vs KYSE 70, 24 h IC50) of 7.69 and a Resistance index (KYSE 70TR; KYSE 70TR vs KYSE 70, 48 h IC50) of 56. It also gave a Resistance index (H1650TR; H1650TR vs H1650, 24 h IC50) of 4.74, a Resistance index (H1650TR; H1650TR vs H1650, 48 h IC50) of 7.74 and an IC50 (H1650TR; 24 h, read-out: 24 h IC50) of 4130 ± 208 nM. The IC50 (H1650TR; 48 h, read-out: 48 h IC50) was 645 ± 45 nM, the IC50 (KYSE 450; KYSE 450, 24 h, read-out: 24 h IC50) was 55.03 ± 0.33 nM and the IC50 (KYSE 450; KYSE 450, 48 h, read-out: 48 h IC50) was 7.82 ± 0.84 nM. The IC50 (KYSE 410; KYSE 410, 24 h, read-out: 24 h IC50) was 1280 ± 69.3 nM, the IC50 (KYSE 410; KYSE 410, 48 h, read-out: 48 h IC50) was 52 ± 3.45 nM and the IC50 (KYSE 70; KYSE 70, 24 h, read-out: 24 h IC50) was 640 ± 43 nM. For the same compound, the IC50 (KYSE 70; KYSE 70, 48 h, read-out: 48 h IC50) was 20.2 nM, the IC50 (H1650; NCI-H1650, 24 h, read-out: 24 h IC50) was 870 ± 43.5 nM and the IC50 (H1650; NCI-H1650, 48 h, read-out: 48 h IC50) was 83.3 ± 3.33 nM.
